Experimental data reported in PubChem BioAssay AID330 (DTP/NCI, 2004).
“And” between values parts separate entries of the source, which are not always exact repeats. Identical values can stand only once. Inconclusive results and toxic doses are left out.

System: P388 leukemia ip, CD2F1 mice, survival T/C
Assay: NCI In Vivo Anticancer Drug Screen. Data for tumor model P388 Leukemia (intraperitoneal) in CD2F1 (CDF1) mice
Conditions: endpoint: median survival time, higher = longer survival
How it was run: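 Mice carrying the transplanted tumor received test compound or vehicle. Survival was recorded in each group, and the value is the treated-group measurement divided by that of the vehicle-treated control group.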

[1] = dose: 50.0 mg/kg/injection, schedule: Q01DX005 (ip), vehicle: Klucel (hydroxypropylcellulose) (HPC)
[2] = dose: 100.0 mg/kg/injection, schedule: Q01DX005 (ip), vehicle: Klucel (hydroxypropylcellulose) (HPC)
[3] = dose: 200.0 mg/kg/injection, schedule: Q01DX005 (ip), vehicle: Klucel (hydroxypropylcellulose) (HPC)

SMILES: NP(=O)(Oc1c2occc2cc2ccc(=O)oc12)N(CCCl)CCCl (stereo unspecified)
- T/C (dose: 50.0 mg/kg/injection, schedule: Q01DX005 (ip), vehicle: saline with Tween-80): 111 % of control
- T/C (dose: 100.0 mg/kg/injection, schedule: Q01DX005 (ip), vehicle: saline with Tween-80): 99 % of control
- T/C (dose: 200.0 mg/kg/injection, schedule: Q01DX005 (ip), vehicle: saline with Tween-80): 114 % of control

SMILES: C=C(Cl)C(=NC(C)(C)C)Nc1ccc(C(=O)OCC)cc1
- T/C [1]: 103 % of control
- T/C [2]: 100 % of control
- T/C [3]: 118 % of control

SMILES: COc1cc2c(c(OC)c1OC)-c1ccc(SC)c(=O)cc1[C@@H](NC(=O)CO)CC2
- T/C (dose: 0.1 mg/kg/injection, schedule: Q01DX009 (ip), vehicle: other): 150 % of control
- T/C (dose: 0.2 mg/kg/injection, schedule: Q01DX009 (ip), vehicle: other): 157 % of control and 172 % of control

SMILES: COc1ccc(CCNC(=O)Cc2ccc(OC)c(OC)c2)cc1OC
- T/C (dose: 100.0 mg/kg/injection, schedule: Q01DX009 (ip), vehicle: saline with Tween-80): 100 % of control
- T/C (dose: 200.0 mg/kg/injection, schedule: Q01DX009 (ip), vehicle: saline with Tween-80): 106 % of control
- T/C (dose: 400.0 mg/kg/injection, schedule: Q01DX009 (ip), vehicle: saline with Tween-80): 123 % of control

SMILES: Cc1nn(-c2ccccc2)c2c1C(=O)CC(C)O2 (stereo unspecified)
- T/C (dose: 60.0 mg/kg/injection, schedule: Q01DX005 (ip), vehicle: Klucel (hydroxypropylcellulose) (HPC)): 93 % of control
- T/C (dose: 120.0 mg/kg/injection, schedule: Q01DX005 (ip), vehicle: Klucel (hydroxypropylcellulose) (HPC)): 91 % of control

SMILES: CCOC(=O)Cn1ccnc1[N+](=O)[O-]
- T/C (dose: 12.5 mg/kg/injection, schedule: Q01DX009 (ip), vehicle: distilled water + Tween-80): 102 % of control
- T/C (dose: 25.0 mg/kg/injection, schedule: Q01DX009 (ip), vehicle: distilled water + Tween-80): 97 % of control
- T/C (dose: 50.0 mg/kg/injection, schedule: Q01DX009 (ip), vehicle: distilled water + Tween-80): 100 % of control
- T/C (dose: 100.0 mg/kg/injection, schedule: Q01DX009 (ip), vehicle: distilled water + Tween-80): 102 % of control
- T/C (dose: 200.0 mg/kg/injection, schedule: Q01DX009 (ip), vehicle: distilled water + Tween-80): 109 % of control

SMILES: COC1CC(C)C(OC)c2cc(O)cc(c2O)NC(=O)/C(C)=C/C=C\C(C)C(OC(N)=O)/C(C)=C\C(C)C1OC (stereo unspecified)
- T/C (dose: 0.63 mg/kg/injection, schedule: Q01DX009 (ip), vehicle: saline + alcohol): 116 % of control
- T/C (dose: 1.25 mg/kg/injection, schedule: Q01DX009 (sc), vehicle: saline + alcohol): 99 % of control
- T/C (dose: 2.5 mg/kg/injection, schedule: Q01DX009 (sc), vehicle: saline + alcohol): 93 % of control
- T/C (dose: 5.0 mg/kg/injection, schedule: Q01DX009 (sc), vehicle: saline + Tween-80 + alcohol): 94 % of control
- T/C (dose: 5.0 mg/kg/injection, schedule: Q01DX009 (sc), vehicle: saline + alcohol): 98 % of control
- T/C (dose: 10.0 mg/kg/injection, schedule: Q01DX009 (sc), vehicle: saline + alcohol): 90 % of control
- T/C (dose: 20.0 mg/kg/injection, schedule: Q01DX009 (ip), vehicle: saline + alcohol): 160 % of control
- T/C (dose: 20.0 mg/kg/injection, schedule: Q01DX009 (oral), vehicle: saline + Tween-80 + alcohol): 92 % of control
- T/C (dose: 40.0 mg/kg/injection, schedule: Q01DX009 (oral), vehicle: saline + Tween-80 + alcohol): 93 % of control
- T/C (dose: 80.0 mg/kg/injection, schedule: Q01DX009 (oral), vehicle: saline + Tween-80 + alcohol): 92 % of control
- T/C (dose: 160.0 mg/kg/injection, schedule: Q01DX009 (oral), vehicle: saline + Tween-80 + alcohol): 94 % of control
- T/C (dose: 240.0 mg/kg/injection, schedule: Q01DX009 (oral), vehicle: saline + Tween-80 + alcohol): 103 % of control

SMILES: C=CCc1ccc(O)c(OC)c1
- T/C (dose: 50.0 mg/kg/injection, schedule: Q01DX009 (ip), vehicle: other): 101 % of control
- T/C (dose: 100.0 mg/kg/injection, schedule: Q01DX009 (ip), vehicle: other): 107 % of control

SMILES: Cc1ccc(NC(=O)N2CC(C)OC(C)C2)cc1[N+](=O)[O-] (stereo unspecified)
- T/C [1]: 103 % of control
- T/C [2]: 99 % of control
- T/C [3]: 94 % of control

SMILES: O=C(O)c1cc2ccccc2c(Br)c1O.O=[N+]([O-])C1CCC(O)C2[N-]CCCC21.[Cu+]
- T/C (dose: 6.25 mg/kg/injection, schedule: Q01DX005 (ip), vehicle: saline with Tween-80): 97 % of control
- T/C (dose: 12.5 mg/kg/injection, schedule: Q01DX005 (ip), vehicle: saline with Tween-80): 100 % of control and 106 % of control
- T/C (dose: 25.0 mg/kg/injection, schedule: Q01DX005 (ip), vehicle: saline with Tween-80): 106 % of control and 98 % of control

SMILES: CCOC(=O)CC(=O)Cc1oc2c(C(C)=O)c(O)c(C)c(O)c2c1C
- T/C [1]: 86 % of control
- T/C [2]: 87 % of control
- T/C [3]: 90 % of control

SMILES: C=C1CCC2(O)C(=C)C(=O)OC2C2C(=C)CCC12 (stereo unspecified)
- T/C (dose: 4.0 mg/kg/injection, schedule: Q01DX009 (ip), vehicle: Klucel (hydroxypropylcellulose) (HPC)): 96 % of control
- T/C (dose: 8.0 mg/kg/injection, schedule: Q01DX009 (ip), vehicle: Klucel (hydroxypropylcellulose) (HPC)): 100 % of control
- T/C (dose: 16.0 mg/kg/injection, schedule: Q01DX009 (ip), vehicle: Klucel (hydroxypropylcellulose) (HPC)): 102 % of control
- T/C (dose: 32.0 mg/kg/injection, schedule: Q01DX009 (ip), vehicle: Klucel (hydroxypropylcellulose) (HPC)): 110 % of control

SMILES: O=C1C[C@@H](c2ccccc2)NCCCCN(O)CCCN1
- T/C (dose: 25.0 mg/kg/injection, schedule: Q01DX005 (ip), vehicle: saline): 106 % of control
- T/C (dose: 50.0 mg/kg/injection, schedule: Q01DX005 (ip), vehicle: saline): 97 % of control
- T/C (dose: 100.0 mg/kg/injection, schedule: Q01DX005 (ip), vehicle: saline): 100 % of control

SMILES: ClCCN(CCCN(CCCl)c1ccccc1)c1ccccc1
- T/C (dose: 200.0 mg/kg/injection, schedule: Q01DX001 (ip), vehicle: saline with Tween-80): 164 % of control
- T/C (dose: 400.0 mg/kg/injection, schedule: Q01DX001 (ip), vehicle: saline with Tween-80): 150 % of control and 157 % of control
- T/C (dose: 800.0 mg/kg/injection, schedule: Q01DX001 (ip), vehicle: saline with Tween-80): 160 % of control

SMILES: COc1ccc2nc3ccccc3c(NCCNCCO)c2c1
- T/C (dose: 1.25 mg/kg/injection, schedule: Q01DX009 (ip), vehicle: saline): 105 % of control
- T/C (dose: 2.5 mg/kg/injection, schedule: Q01DX009 (ip), vehicle: saline): 105 % of control
- T/C (dose: 5.0 mg/kg/injection, schedule: Q01DX009 (ip), vehicle: saline): 120 % of control

SMILES: Cc1ccc(S(=O)(=O)Nn2nnc(-c3ccccc3)n2)cc1
- T/C (dose: 50.0 mg/kg/injection, schedule: Q04DX003 (ip), vehicle: Klucel (hydroxypropylcellulose) (HPC)): 98 % of control
- T/C (dose: 100.0 mg/kg/injection, schedule: Q04DX003 (ip), vehicle: Klucel (hydroxypropylcellulose) (HPC)): 102 % of control
- T/C (dose: 200.0 mg/kg/injection, schedule: Q04DX003 (ip), vehicle: Klucel (hydroxypropylcellulose) (HPC)): 102 % of control

SMILES: COc1cc(C2NC(=S)NC2=S)ccc1O (stereo unspecified)
- T/C (dose: 25.0 mg/kg/injection, schedule: Q04DX003 (ip), vehicle: saline with Tween-80): 109 % of control
- T/C (dose: 50.0 mg/kg/injection, schedule: Q04DX003 (ip), vehicle: saline with Tween-80): 104 % of control
- T/C (dose: 100.0 mg/kg/injection, schedule: Q04DX003 (ip), vehicle: saline with Tween-80): 109 % of control

SMILES: C[S+](CCSc1ccccc1)CCSc1ccccc1
- T/C (dose: 7.5 mg/kg/injection, schedule: Q01DX009 (ip), vehicle: saline with Tween-80): 90 % of control
- T/C (dose: 15.0 mg/kg/injection, schedule: Q01DX009 (ip), vehicle: saline with Tween-80): 101 % of control
- T/C (dose: 30.0 mg/kg/injection, schedule: Q01DX009 (ip), vehicle: saline with Tween-80): 99 % of control

SMILES: CCN=C(Cl)N(C)c1ccccc1
- T/C (dose: 50.0 mg/kg/injection, schedule: Q01DX009 (ip), vehicle: Klucel (hydroxypropylcellulose) (HPC)): 100 % of control
- T/C (dose: 100.0 mg/kg/injection, schedule: Q01DX009 (ip), vehicle: Klucel (hydroxypropylcellulose) (HPC)): 95 % of control

SMILES: NC(=S)c1ccccc1N=Cc1cccs1
- T/C (dose: 100.0 mg/kg/injection, schedule: Q01DX001 (ip), vehicle: saline): 100 % of control
- T/C (dose: 200.0 mg/kg/injection, schedule: Q01DX001 (ip), vehicle: saline): 102 % of control
- T/C (dose: 400.0 mg/kg/injection, schedule: Q01DX001 (ip), vehicle: saline): 98 % of control

SMILES: O=C(N/N=C/c1ccc(O)cc1)c1ccc(OCc2nc3ccccc3[nH]2)cc1
- T/C (dose: 25.0 mg/kg/injection, schedule: Q01DX005 (ip), vehicle: Klucel (hydroxypropylcellulose) (HPC)): 102 % of control
- T/C [1]: 96 % of control
- T/C [2]: 102 % of control
- T/C [3]: 96 % of control

SMILES: O=C(O)CCc1cccc(O)c1
- T/C (dose: 25.0 mg/kg/injection, schedule: Q01DX009 (ip), vehicle: saline): 110 % of control
- T/C (dose: 50.0 mg/kg/injection, schedule: Q01DX009 (ip), vehicle: saline): 101 % of control
- T/C (dose: 100.0 mg/kg/injection, schedule: Q01DX009 (ip), vehicle: saline): 103 % of control
- T/C (dose: 200.0 mg/kg/injection, schedule: Q01DX009 (ip), vehicle: saline): 95 % of control
